Source: article PMC9858421 (Journal of Enzyme Inhibition and Medicinal Chemistry, 2023)
“Also recorded” adds a separate entry of the source. Read-outs that look alike come from different tables or passages of the source.

Experiments:
VDAC1 = conditions: PLB, cited from earlier work
hVDAC1 [1] = target: T1, hVDAC1 (Homo sapiens, UniProt P21796); assay: NanoDSF thermal shift; type: binding; conditions: hVDAC1 in LDAO; compared to hVDAC1 alone at 0% or 5% DMSO
hVDAC1 [2] = target: T1, hVDAC1; assay: MST binding check; conditions: 100 nM hVDAC1, highest soluble ligand concentration
hVDAC1 [3] = target: T1, hVDAC1; assay: MST dose-response experiment; type: binding
rVDAC1 = conditions: cited from earlier work
hVDAC1 [4] = target: T1, hVDAC1; conditions: read-out: Published Kd; cited from earlier work
[5] = MST dose-response, 100 nM hVDAC1, 16 concentrations

T1 sequence (P21796 whole entry): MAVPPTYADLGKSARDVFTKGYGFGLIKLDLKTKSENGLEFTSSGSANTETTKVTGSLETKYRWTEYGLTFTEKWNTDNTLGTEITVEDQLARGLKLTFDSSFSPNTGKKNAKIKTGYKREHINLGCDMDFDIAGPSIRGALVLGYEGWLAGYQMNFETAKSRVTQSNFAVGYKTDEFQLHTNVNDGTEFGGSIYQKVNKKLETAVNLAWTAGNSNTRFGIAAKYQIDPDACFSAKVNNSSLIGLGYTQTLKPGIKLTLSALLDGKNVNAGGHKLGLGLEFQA

| Tm shift in NanoDSF (direction / significance, in words) (hVDAC1 [1]) | MST Binding Check (hVDAC1 [2]) | Kd (hVDAC1 [3]) | Compound | other results |
| --- | --- | --- | --- | --- |
| – | – | – | CNCCC(Oc1ccc(C(F)(F)F)cc1)c1ccccc1 (centres unmarked) [Fluoxetine] | Effect(s) on activity (VDAC1): Reduces conductance Prevents Cyto C release |
| negative Tm shift | Positive | 6 ± 1 µM | COc1cc(/C=C/C(=O)CC(=O)/C=C/c2ccc(O)c(OC)c2)ccc1O [Curcumin] | Effect(s) on activity (VDAC1): Reduces conductance by promoting closed state(s); Kd (hVDAC1 [3]; [5]): < 10 µM |
| negative Tm shift | Positive | – | C=C[C@H]1C[N@@]2CC[C@H]1C[C@@H]2[C@@H](O)c1ccnc2ccc(OC)cc12 [Quinidine] | MST Binding Check (hVDAC1 [2]; listed as quinidine): validated by binding check |
| – | Positive | 5 ± 2 µM | CCC(C)n1ncn(-c2ccc(N3CCN(c4ccc(OCC5COC(Cn6cncn6)(c6ccc(Cl)cc6Cl)O5)cc4)CC3)cc2)c1=O (centres unmarked) [Itraconazole] | MST Binding Check (hVDAC1 [2]; listed as itraconazole): binding was shown; Kd (rVDAC1; read-out: Published Kd): 120 µM |
| not been confirmed as VDAC1 ligands | Positive | – | CN(C)C(=N)N=C(N)N [Metformin] | Effect(s) on activity (VDAC1; MST): Reduces conductance No binding observed by MST; MST Binding Check (hVDAC1 [2]; listed as metformin): validated by binding check |
| negative Tm shift | Positive | – | CC(C)CCC[C@@H](C)[C@H]1CC[C@H]2[C@@H]3CCC4=CC(=NO)CC[C@]4(C)[C@H]3CC[C@]12C [Olesoxime] | Effect(s) on activity (VDAC1): Reduces conductance; MST Binding Check (hVDAC1 [2]; listed as olesoxime): validated by binding check |
| – | Positive | – | CC(=O)Oc1ccccc1C(=O)O [Aspirin] | MST Binding Check (hVDAC1 [2]; listed as aspirin): validated by binding check |

| Compound | Tm shift in NanoDSF (direction / significance, in words) (hVDAC1 [1]) | MST Binding Check (hVDAC1 [2]) | Kd (hVDAC1 [3]) | other results |
| --- | --- | --- | --- | --- |
| C=C(C)[C@@H]1CCC(C)=C[C@H]1c1c(O)cc(CCCCC)cc1O [Cannabidiol] | increase the Tm; also recorded: positive | Positive | 6 ± 2 µM | Effect(s) on activity (VDAC1; MST): Reduces conductance Increases mitochondrial Ca^2+; Kd (hVDAC1 [3]; [5]): < 10 µM; Kd (rVDAC1; read-out: Published Kd, listed as cannabidiol): 11 µM; Kd (rVDAC1; read-out: Published Kd): 11.2 µM |
| C(=NC1CCCCC1)=NC1CCCCC1 [DCCD] | increase the Tm | Positive | – | Effect(s) on activity (VDAC1; NMR, [14C] DCCD-labelled VDAC1): Reduces conductance Inhibits HK-VDAC1 binding |
| Cc1cc(O)c2c(c1)C(=O)c1cc(O)cc(O)c1C2=O [Emodin] | not been confirmed as VDAC1 ligands; also recorded: no significant changes in Tm | Positive | 10 ± 5 µM | MST Binding Check (hVDAC1 [2]; listed as emodin): binding was shown |
| O.Oc1cc(O)c2c(c1)O[C@H](c1ccc(O)c(O)c1)[C@@H](O)C2 [Catechin] | increase the Tm; also recorded: significant Tm shift | – | – | – |
| CC(C)c1cccc(C(C)C)c1O [Propofol] | increase the Tm | Positive | > 650 µM | Effect(s) on activity (VDAC1): Promotes closure when a negative voltage is applied No effects on open state conductance |
| O=C(O)c1ccccc1Nc1ccccc1 [DPC] | negative Tm shift | validated by binding check; also recorded: Positive | – | Effect(s) on activity (VDAC1; MST): Reduces conductance Prevents oligomerization; Kd (rVDAC1; read-out: Published Kd): 150 µM |
| NC(=O)C1=CN([C@@H]2O[C@H](COP(=O)(O)OP(=O)(O)OC[C@H]3O[C@@H](n4cnc5c(N)ncnc54)[C@H](O)[C@@H]3O)[C@@H](O)[C@H]2O)C=CC1 [NADH] | not been confirmed as VDAC1 ligands | validated by binding check; also recorded: Positive | – | Effect(s) on activity (VDAC1; NMR): Affects gating without reducing the conductance Sterically closes the channel; Kd (hVDAC1 [4]): 9000 µM |
